{
  "source": "patent US8835467B2",
  "about": "“SIR2 regulation” (Albert Einstein College of Medicine of Yeshiva University, priority 2003, dated 2014)",
  "key": {"Bacterial SIR2Af2": {"biological_target": "T1, Bacterial SIR2Af2 (Archaeoglobus fulgidus, UniProt O30124)", "T1 construct": "made in house", "T1 sequence (O30124 1-253)": "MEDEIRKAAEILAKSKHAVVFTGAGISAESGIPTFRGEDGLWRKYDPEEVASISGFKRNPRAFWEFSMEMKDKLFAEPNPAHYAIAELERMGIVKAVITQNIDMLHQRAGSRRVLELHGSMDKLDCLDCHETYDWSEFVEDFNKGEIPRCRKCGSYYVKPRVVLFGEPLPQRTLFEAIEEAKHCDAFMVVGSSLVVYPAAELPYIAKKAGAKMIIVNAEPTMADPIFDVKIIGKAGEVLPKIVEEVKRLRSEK", "experiment": "SIR2 deacetylation assay (p53 peptide, HPLC of ADPR and 3′-O-acetyl-ADPR)", "type": "biochemical, Archeaglobus fulgidus", "experimental": "After 2 hours, aliquots of 10 μL removed at 0, 30, 60, 90 and 120 min. Each aliquot was combined with 50 μL 50 mM ammonium acetate pH 5.0 to quench and assayed by HPLC for deacetylation products and NAD^+. The chromatograms (260 nm) were obtained using 50 mM ammonium acetate pH 5.0 as eluant on a semi-preparative Waters C-18 column (2.0 mL/min flow rate). Peaks for ADPR and 3′-O-Acetyl-ADPR were quantified by integration. The peak for NAD^+ was collected and radiation counted. […] Plots of deacetylation rate versus nicotinamide were fit to the equations described in the text.\nReactions were as above but base reactions contained 5 mM of pyrazinamide, isonicotinamide, thionicotinamide, or benzamide. Reactions were carried out (2 hours for AF2 and yeast enzymes and 3 hours for mouse enzyme) at 37° C. and quenched by addition of 80 μL 50 mM ammonium acetate pH 5.0. Product formation was quantified by HPLC. Thionicotinamide-NAD^+ was synthesized by CD38. Rates were compared with controls lacking added base."}, "Yeast Sir2": {"biological_target": "Yeast Sir2 (Saccharomyces cerevisiae, UniProt P06700)", "sequence (P06700 whole entry)": "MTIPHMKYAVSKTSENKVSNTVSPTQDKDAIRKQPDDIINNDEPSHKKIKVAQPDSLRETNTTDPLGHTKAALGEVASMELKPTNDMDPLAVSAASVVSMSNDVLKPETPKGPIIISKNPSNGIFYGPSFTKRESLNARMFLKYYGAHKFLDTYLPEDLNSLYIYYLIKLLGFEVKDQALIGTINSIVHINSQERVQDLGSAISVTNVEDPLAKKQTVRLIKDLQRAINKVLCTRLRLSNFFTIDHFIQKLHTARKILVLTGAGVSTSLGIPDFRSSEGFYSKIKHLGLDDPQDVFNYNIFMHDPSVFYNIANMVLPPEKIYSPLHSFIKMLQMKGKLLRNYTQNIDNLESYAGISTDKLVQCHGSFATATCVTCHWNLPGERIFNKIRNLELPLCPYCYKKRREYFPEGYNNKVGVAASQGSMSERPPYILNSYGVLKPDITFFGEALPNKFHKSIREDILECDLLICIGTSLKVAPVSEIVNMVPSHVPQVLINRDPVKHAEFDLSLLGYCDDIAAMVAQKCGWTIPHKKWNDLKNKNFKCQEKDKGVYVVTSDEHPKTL", "experiment": "Sir2 catalyzed deacetylation of H4 N-terminal peptide", "type": "biochemical", "experimental": "Measurements were performed by methods described in Sauve and Schramm (2003) with the H4N-terminal peptide (AGG(AcK)GG(AcK)GMG(AcK)VGA(AcK)RHSC) (Imai et al., 2000) as substrate."}, "[1]": {"test_system": "Sir2-dependent transcriptional silencing at the rDNA locus", "experiment": "rDNA locus URA3 silencing on FOA-containing media", "type": "cell-based, yeast", "settings": "RDN1::URA3 strain; 25 mM isonicotinamide", "experimental": "Ten-fold serial dilutions of yeast strains were spotted onto control (YPD) or selective media (vanLeeuwen and Gottschling, 2002). The photographs were taken after 2 to 3 days incubation. […] Isogenic strains UCC4562 (DOT1) and UCC4554 (dot1Δ) (Singer et al., 1998) are shown in each panel (top and bottom rows, respectively). […] The phenotype of strain CCFY10028 (top row) is compared to an isogenic sir2 derivative (bottom row). The sir2 deletion strain was generated by PCR-mediated gene disruption using a Nat-MX selectable marker (Tong et al., 2004).\nSir2 also localizes to the nucleolus where it functions to propagate a specialized chromatin structure on the rDNA (Rusche at al., 2003). […] Thus, isonicotinamide increases the activity of Sir2 in vivo at all three types of silent loci."}},
  "data": [
    {"smiles": "NC(=O)c1ccncc1", "note": "[Isonicotinamide]", "values": [
      {"measurement": "inhibition at 5000 µM", "setting": "Bacterial SIR2Af2", "value": 4, "unit": "%"},
      {"measurement": "increase of deacetylation activity", "setting": "Yeast Sir2; 125 μM [carbonyl-14C]nicotinamide, increasing isonicotinamide", "value": "≤ 45", "unit": "%"},
      {"measurement": "effect on rates of deacetylation", "setting": "Yeast Sir2; isonicotinamide to 100 mM, absence of nicotinamide", "value": "do not substantially affect rates of deacetylation"},
      {"measurement": "silencing at the rDNA locus (resistance to FOA)", "setting": "[1]", "value": "increases silencing at the rDNA locus"}
    ]}
  ]
}
